# Read-outs that look alike come from different tables or passages of the source.
# How the values were obtained:
# [1] = test system: Eleusine indica biotypes (S, R1, R2); assay: Herbicide rate screening assay (greenhouse, foliar-applied, visual injury); format: in vivo; conditions: for I50, estimated rate required to reduce Eleusine indica biotype by 50% (Visual Control/Injury) / I90, estimated rate required to reduce Eleusine indica biotype by 90% (Visual Control/Injury): injury scores 14 days after treatment; for Parameter estimate a of sigmoidal model y = a/(1 + exp(−(x − x0)/b)) for percent injury / Parameter estimate b of sigmoidal model y = a/(1 + exp(−(x − x0)/b)) for percent injury / Parameter estimate x0 of sigmoidal model y = a/(1 + exp(−(x − x0)/b)) for percent injury: x = log-transformed herbicide rate (kg/ha), 14 DAT
# From the text: Three E. indica biotypes from different locations were used in this study. The R1 biotype was collected in Country Club of Virginia, Richmond, Va., and the R2 biotype was from River Bend Golf, New Bern, N.C. These two biotypes were previous confirmed resistant to preemergence application of oxadiazon, but have not been screened to other PPO inhibitors. The S biotype was collected from the Alabama Agricultural Experiment Station, Plant Breeding Unit, Tallassee, Ala., which was confirmed susceptible to PPO inhibitors. Seeds of the mature plants were harvested, air dried and stored in the 4° C. freezer until planted in the greenhouse.
# Greenhouse conditions were 30±3° C. at day/night temperature and ˜70% average relative humidity. The E. indica seeds were placed on the soil surface and lightly covered with sand in 28 cm*20 cm flats and watered as needed daily to ensure germination. Two weeks after emergence, seedlings were separated and transplanted to in individual 10-cm pots (volumes=0.5 L). Pots were filled with surface horizon of Marvyn sandy loam (fine-loamy, kaolinitic, thermic Typic Kanhapludults) soil with pH 6.4 and 1.2% organic matter. The plants were irrigated three times daily for 2 min with overhead irrigation and fertilized once at one week after transplanting at approximately 50 kg N ha^−1 with Scott's Miracle-Gro All-Purpose fertilizer (The Scotts Miracle-Gro Co. Marysville, Ohio). Plants were 5-10 cm in height with 3-5 tillers in size at the time of herbicide treatment.
# Herbicide treatments were foliar-applied at 280 L/ha using an enclosed spray chamber with a single 8002E nozzle (TeeJet Spray Systems Co, Wheaton, Ill.) at 32 PSI. Four herbicides were selected for the experiment: oxadiazon (Ronstar FLO, Bayer Environmental Sci., Research Triangle Park, N.C.), sulfentrazone (Dismiss, FMC Corporation, Philadelphia, Pa.), flumioxazin (Sureguard, Valent Corp., Walnut Creek, Calif.) and lactofen (Cobra, Valent Corp., Walnut Creek, Calif.). All the herbicides are from different herbicide chemical families of PPO inhibitors: oxadiazoles, triazolinone, N-phenylphthalimide and diphenyl ether, respectively. Herbicides were applied at 7 different rates based on each herbicide label rate: oxadiazon ranging from 0.14 to 8.96 kg/ha, sulfentrazone from 0.07 to 4.50 kg/ha, flumioxazin from 0.08 to 5.70 kg/ha, and lactofen from 0.029 to 1.75 kg/ha. A non-treated control (0 kg/ha) was included. 192 plants of each biotype were tested and experiments were conducted as completely random design, three replications for two runs.
# The visual injury rating scores per plant at 14 days after treatment (DAT) were recorded, where the visual injury rating scores were based on a 0 to 100 scale, which 0 is equated to no phytotoxicity and 100 is equated to complete control. Data subjected to ANOVA analysis at a significance level of P<0.05 using the PROC GLM procedure of SAS 9.4 (SAS Institute Inc., Cary, N.C.). All the herbicide rates were log transformed to make equal spacing between the herbicide treatments in order to facilitate regression analysis. The non-treated control was transformed to equal spacing based on the log rates of each herbicide, respectively. Data were fitted to a sigmoidal model using SigmaPlot 10.2 (Systat Software Inc., London, UK) using a sigmoidal function (Equation 1).
# y=a/(1+e^(−((x−x0)/b))) (1)
# In this fit sigmoidal model, where y represents E. indica visual damage relative to non-treated control (%), x represents the log-transformed herbicide rates (kg/ha), three parameters (a, b, x0) represents the y intercept.
# [2] = molecular target: T1, recombinant wild-type E. indica PPO1 (Eleusine indica, UniProt A0A6G5XNV7); assay: In vitro PPO enzyme activity inhibition, wild-type PPO1; format: biochemical; conditions: for inhibition at 10 µM / Wild-type E. indica PPO1 % inhibition: highest herbicide concentration 10^−5 M
# T1 sequence (A0A6G5XNV7 1-529): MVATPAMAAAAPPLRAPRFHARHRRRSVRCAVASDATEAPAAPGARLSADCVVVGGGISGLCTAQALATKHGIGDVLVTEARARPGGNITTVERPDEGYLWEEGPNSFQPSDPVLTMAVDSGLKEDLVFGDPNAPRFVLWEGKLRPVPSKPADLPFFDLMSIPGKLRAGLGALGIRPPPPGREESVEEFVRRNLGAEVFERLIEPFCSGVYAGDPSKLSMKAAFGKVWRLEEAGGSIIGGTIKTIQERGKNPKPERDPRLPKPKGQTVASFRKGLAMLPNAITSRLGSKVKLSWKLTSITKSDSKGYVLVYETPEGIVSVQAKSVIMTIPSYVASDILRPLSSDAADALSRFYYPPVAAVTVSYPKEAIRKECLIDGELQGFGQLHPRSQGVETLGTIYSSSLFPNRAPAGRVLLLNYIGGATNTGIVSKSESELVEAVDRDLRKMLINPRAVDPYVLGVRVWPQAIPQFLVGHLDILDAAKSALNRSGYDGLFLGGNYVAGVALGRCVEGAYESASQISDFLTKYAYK
# From the text: Effects of A212T substitution were studied using the E. indica backbone. The wild-type E. indica PPO1 and the E. indica PPO1 A212T variants were synthesized de novo and subcloned into pRSetB plasmid (Invitrogen, Carlsbad, Calif.). The complete description of expression and purification of E. indica PPO1 and E. indica PPO1 A212T variant proteins were referenced to the method described for PPO2 by Rangani et al. (2019, Frontiers in Plant Sci., 10:568). […] Oxadiazon, sulfentrazone, saflufenacil and lactofen are from the class of oxadiazole, triazolinone, pyrimidinedione, and diphenyl ether, respectively. Flumioxazin and trifludimoxazin are from the same chemical family, N-phenylphthalimide. […] The assay was replicated twice.
# [3] = molecular target: T2, recombinant variant E. indica PPO1 A212T (Eleusine indica, UniProt A0A6G5XNV7, A212T); assay: In vitro PPO enzyme activity inhibition, variant PPO1 A212T; format: biochemical; conditions: for inhibition at 10 µM: read-out: Variant E. indica PPO1 A212T % inhibition
# T2 sequence (A0A6G5XNV7 entry or part of it A212T): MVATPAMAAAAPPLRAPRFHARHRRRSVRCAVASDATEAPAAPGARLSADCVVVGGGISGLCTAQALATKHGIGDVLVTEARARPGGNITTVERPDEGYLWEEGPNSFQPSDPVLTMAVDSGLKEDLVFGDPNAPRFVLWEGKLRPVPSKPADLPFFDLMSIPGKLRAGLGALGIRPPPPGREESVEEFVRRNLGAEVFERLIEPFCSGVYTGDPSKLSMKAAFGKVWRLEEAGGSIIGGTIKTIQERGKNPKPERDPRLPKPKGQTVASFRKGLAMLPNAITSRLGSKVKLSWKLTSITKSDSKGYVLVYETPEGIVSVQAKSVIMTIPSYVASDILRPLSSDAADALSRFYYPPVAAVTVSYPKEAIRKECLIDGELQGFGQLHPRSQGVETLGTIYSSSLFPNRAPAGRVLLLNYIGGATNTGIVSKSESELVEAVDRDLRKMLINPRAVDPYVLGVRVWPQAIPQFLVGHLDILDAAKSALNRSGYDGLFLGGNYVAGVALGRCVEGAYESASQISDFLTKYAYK
# From the text: Effects of A212T substitution were studied using the E. indica backbone. The wild-type E. indica PPO1 and the E. indica PPO1 A212T variants were synthesized de novo and subcloned into pRSetB plasmid (Invitrogen, Carlsbad, Calif.). The complete description of expression and purification of E. indica PPO1 and E. indica PPO1 A212T variant proteins were referenced to the method described for PPO2 by Rangani et al. (2019, Frontiers in Plant Sci., 10:568). Six PPO inhibitors, belonging to five different chemical families, were evaluated on the PPO enzyme activity at a concentrations ranging from 5.00×10^−5M to 5.12×10^−12M. Oxadiazon, sulfentrazone, saflufenacil and lactofen are from the class of oxadiazole, triazolinone, pyrimidinedione, and diphenyl ether, respectively. Flumioxazin and trifludimoxazin are from the same chemical family, N-phenylphthalimide. […] The assay was replicated twice.
# [4] = molecular target: T2, recombinant variant E. indica PPO1 A212T; assay: as above; format: biochemical; conditions: highest herbicide concentration 10^−5 M
# [5] = recombinant enzyme, in vitro, read-out: Wild-type E. indica PPO1 sensitivity [IC50]
Compound,"I50, estimated rate required to reduce Eleusine indica biotype by 50% (Visual Control/Injury) ([1]; R1 biotype) [kg ha^−1]","I90, estimated rate required to reduce Eleusine indica biotype by 90% (Visual Control/Injury) ([1]; R1 biotype) [kg ha^−1]",Parameter estimate a of sigmoidal model y = a/(1 + exp(−(x − x0)/b)) for percent injury ([1]; R1 biotype),Parameter estimate b of sigmoidal model y = a/(1 + exp(−(x − x0)/b)) for percent injury ([1]; R1 biotype),Parameter estimate x0 of sigmoidal model y = a/(1 + exp(−(x − x0)/b)) for percent injury ([1]; R1 biotype),"I50, estimated rate required to reduce Eleusine indica biotype by 50% (Visual Control/Injury) ([1]; R2 biotype) [kg ha^−1]","I90, estimated rate required to reduce Eleusine indica biotype by 90% (Visual Control/Injury) ([1]; R2 biotype) [kg ha^−1]",Parameter estimate a of sigmoidal model y = a/(1 + exp(−(x − x0)/b)) for percent injury ([1]; R2 biotype),Parameter estimate b of sigmoidal model y = a/(1 + exp(−(x − x0)/b)) for percent injury ([1]; R2 biotype),Parameter estimate x0 of sigmoidal model y = a/(1 + exp(−(x − x0)/b)) for percent injury ([1]; R2 biotype),"I50, estimated rate required to reduce Eleusine indica biotype by 50% (Visual Control/Injury) ([1]; S biotype) [kg ha^−1]","I90, estimated rate required to reduce Eleusine indica biotype by 90% (Visual Control/Injury) ([1]; S biotype) [kg ha^−1]",Parameter estimate a of sigmoidal model y = a/(1 + exp(−(x − x0)/b)) for percent injury ([1]; S biotype),Parameter estimate b of sigmoidal model y = a/(1 + exp(−(x − x0)/b)) for percent injury ([1]; S biotype),Parameter estimate x0 of sigmoidal model y = a/(1 + exp(−(x − x0)/b)) for percent injury ([1]; S biotype),IC50 [2] [nM],inhibition at 10 µM [2] [%],IC50 [3] [nM],inhibition at 10 µM [3] [%],Wild-type E. indica PPO1 % inhibition [2] [%],other results
"Cc1nn(-c2cc(NS(C)(=O)=O)c(Cl)cc2Cl)c(=O)n1C(F)F [Sulfentrazone, sulfentrazone]",0.15,0.32,95.12,0.12,−0.84,0.18,0.63,100.90,0.25,−0.73,0.08,0.19,98.21,0.16,−1.10,275,> 90,1870,76,–,–
"CC(C)N(C)S(=O)(=O)NC(=O)c1cc(-n2c(=O)cc(C(F)(F)F)n(C)c2=O)c(F)cc1Cl [Saflufenacil, saflufenacil]",–,–,–,–,–,–,–,–,–,–,–,–,–,–,–,–,> 90,449,> 90,–,"IC50 [2, 5]: 19.4 nM"
"C#CCN1C(=O)COc2cc(F)c(N3C(=O)C4=C(CCCC4)C3=O)cc21 [Flumioxazin, flumioxazin]",0.08,0.10,96.53,0.04,−1.11,0.08,0.10,96.81,0.04,−1.11,0.08,0.09,98.00,0.02,−1.09,16.7,> 90,13.4,> 90,>90,Variant E. indica PPO1 A212T % inhibition [4]: >90%
"CCOC(=O)C(C)OC(=O)c1cc(Oc2ccc(C(F)(F)F)cc2Cl)ccc1[N+](=O)[O-] (stereo not drawn) [Lactofen, lactofen]",0.04,0.51,84.65,0.29,−1.44,0.06,0.50,89.20,0.30,−1.31,0.03,0.17,90.29,0.13,−1.52,26.4,> 90,362,> 90,>90,Variant E. indica PPO1 A212T % inhibition [4]: >90%
"C#CCN1C(=O)C(F)(F)Oc2cc(F)c(-n3c(=O)n(C)c(=S)n(C)c3=O)cc21 [Trifludomoxazin, trifludimoxazin]",–,–,–,–,–,–,–,–,–,–,–,–,–,–,–,–,–,–,–,>90,"IC50 [2, 5]: 17.1 nM; IC50 ([3]; recombinant enzyme, in vitro, read-out: Variant E. indica PPO1 A212T sensitivity [IC50]): 26.5 nM; Variant E. indica PPO1 A212T % inhibition [4]: >90%"
